According to patent US20250270217A1, “IMIDAZ0[1,2-A]PYRIMIDINE-5(1 H)-ONES HAVING A COVALENT WARHEAD AT THE 3-POSITION AS WRN INHIBITORS” (Incyte Corporation, priority 2023, published 2025):

Assays:
[1] = tested on: WRN (aa S2-S1235) variants; experiment: Helicase activity of WRN mutants (fluorescence-based DNA unwinding assay); format: biochemical; settings: for Ratio to WT: Table 9, helicase activity; for Observed Helicase Activity (AU/min): Table 9, helicase activity of WRN mutants
Description: (§1) Point mutations were made in the His-tagged WRN construct used for biochemical characterization (aa S2-S1235). Cysteine 580 (Walker A motif), 727 (linker), 864 (Domain 2A) and 1041 (RQC domain) were each mutated to both Serine and Alanine using site directed mutagenesis, for a total of eight mutants. Purified proteins were assayed in both helicase and ATPase assays. Cys580 mutation to either Ser or Ala abolished all activity, consistent with Walker A motif cysteine function. Cys864 (D2) mutation to alanine and Cys1041 (RQC domain) had no significant impact on helicase or ATPase activity. Cys727 abolished helicase activity (Table 9), whether it was mutated to Ala or Ser. ATPase activity for Cys727 mutants was reduced but not abolished (Table 10). Table 9 is the panel of the nine variant WRN helicase proteins that were screen using a flourscence-based DNA unwinding assay with an increase in flourscence intensity indicating DNA unwinding. Table 10 is the panel of the nine variant WRN helicase proteins that were screened using ADP-Glo assay to measure DNA stimulated ATPase activity, with an increase in luminescence indicating ATP hydrolysis.

[2] = tested on: WRN (aa S2-S1235) variants; experiment: ATPase activity of WRN mutants (ADP-Glo, DNA stimulated ATPase activity); format: biochemical; settings: for Ratio to WT: Table 10, ATPase activity; for Observed Helicase Activity (AU/min): Table 10, ATPase activity of WRN mutants
Description: as §1

Row | Substance | Ratio to WT [1] | Observed Helicase Activity (AU/min) [1] [AU/min] | Ratio to WT [2] | Observed Helicase Activity (AU/min) [2] [AU/min]
1 | 1. C580A: His-tagged WRN construct (aa S2-S1235), Cysteine 580 (Walker A motif) mutated to Alanine | 0.02 | 1.04 | 0.03 | 2.548
2 | 2. C580S: His-tagged WRN construct (aa S2-S1235), Cysteine 580 (Walker A motif) mutated to Serine | 0.00 | 0 | 0.01 | 0.8014
3 | 3. C727A: His-tagged WRN construct (aa S2-S1235), Cysteine 727 (linker) mutated to Alanine | 0.07 | 4.619 | 0.29 | 22.65
4 | 5. C864A: His-tagged WRN construct (aa S2-S1235), Cysteine 864 (Domain 2A) mutated to Alanine | 0.94 | 60.75 | 0.90 | 70.52
5 | 6. C864S: His-tagged WRN construct (aa S2-S1235), Cysteine 864 (Domain 2A) mutated to Serine | 0.44 | 28.49 | 0.54 | 42.02
6 | 7. C1041A: His-tagged WRN construct (aa S2-S1235), Cysteine 1041 (RQC domain) mutated to Alanine | 0.93 | 60.14 | 0.85 | 66.66
7 | 8. C1041S: His-tagged WRN construct (aa S2-S1235), Cysteine 1041 (RQC domain) mutated to Serine | 0.62 | 40.28 | 0.59 | 45.74
